From PubChem BioAssay AID248 (DTP/NCI, 2004)
Values joined by “and” are separate entries in the source; they are usually repeats but may differ in a detail not shown here. Equal values may be shown once. Inconclusive results and toxic doses are left out. Rule as the data show it: active = T/C of 150% or more; inactive = T/C below 125%.

System: L1210 leukemia ip in BDF1 mice, survival T/C
Assay: NCI In Vivo Anticancer Drug Screen. Data for tumor model L1210 Leukemia (intraperitoneal) in B6D2F1 (BDF1) mice
Conditions: endpoint: mean survival time, higher = longer survival
How it was run: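 In this screen, tumor-bearing mice given compound are compared to those given vehicle, and their survival values are reported as a treated-to-control quotient.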

[1] = dose: 15.0 mg/kg/injection, schedule: Q01DX Z (ip), vehicle: carboxymethylcellulose (CMC)
[2] = dose: 100.0 mg/kg/injection, schedule: Q01DX001 (ip), vehicle: saline with Tween-80
[3] = dose: 50.0 mg/kg/injection, schedule: Q01DX001 (ip), vehicle: saline
[4] = dose: 100.0 mg/kg/injection, schedule: Q01DX001 (ip), vehicle: saline
[5] = dose: 100.0 mg/kg/injection, schedule: Q04DX003 (ip), vehicle: saline
[6] = dose: 200.0 mg/kg/injection, schedule: Q01DX001 (ip), vehicle: saline
[7] = dose: 200.0 mg/kg/injection, schedule: Q04DX003 (ip), vehicle: saline
[8] = dose: 400.0 mg/kg/injection, schedule: Q01DX001 (ip), vehicle: saline
[9] = dose: 25.0 mg/kg/injection, schedule: Q01DX009 (ip), vehicle: saline
[10] = dose: 50.0 mg/kg/injection, schedule: Q01DX009 (ip), vehicle: saline
[11] = dose: 100.0 mg/kg/injection, schedule: Q01DX001 (ip), vehicle: carboxymethylcellulose (CMC)
[12] = dose: 200.0 mg/kg/injection, schedule: Q01DX001 (ip), vehicle: carboxymethylcellulose (CMC)

Measured: T/C

NC(N)=N/N=C1\CCCC\C1=N/N=C(N)N
inactive: [1] 97 % of control | dose: 30.0 mg/kg/injection, schedule: Q01DX Z (ip), vehicle: carboxymethylcellulose (CMC) 95 % of control | dose: 60.0 mg/kg/injection, schedule: Q01DX Z (ip), vehicle: carboxymethylcellulose (CMC) 91 % of control | dose: 60.0 mg/kg/injection, schedule: Q01DX Z (oral), vehicle: carboxymethylcellulose (CMC) 96 % of control | dose: 120.0 mg/kg/injection, schedule: Q01DX Z (ip), vehicle: carboxymethylcellulose (CMC) 102 % of control | dose: 120.0 mg/kg/injection, schedule: Q01DX Z (oral), vehicle: carboxymethylcellulose (CMC) 93 % of control | dose: 240.0 mg/kg/injection, schedule: Q01DX Z (oral), vehicle: carboxymethylcellulose (CMC) 88 % of control | dose: 480.0 mg/kg/injection, schedule: Q01DX Z (oral), vehicle: carboxymethylcellulose (CMC) 98 % of control

Nc1nc(N)c(-c2ccc(Cl)cc2)c(CNc2ccc(/C=C/C3(CCl)OCCO3)cc2)n1
inactive: [2] 92 % of control | dose: 200.0 mg/kg/injection, schedule: Q01DX001 (ip), vehicle: saline with Tween-80 100 % of control | dose: 400.0 mg/kg/injection, schedule: Q01DX001 (ip), vehicle: saline with Tween-80 96 % of control

Cn1cnc(N)c1/C(N)=N/O
inactive: dose: 6.25 mg/kg/injection, schedule: Q01DX005 (ip), vehicle: saline 100 % of control | dose: 12.5 mg/kg/injection, schedule: Q01DX005 (ip), vehicle: saline 98 % of control | dose: 25.0 mg/kg/injection, schedule: Q01DX005 (ip), vehicle: saline 107 % of control | dose: 50.0 mg/kg/injection, schedule: Q01DX005 (ip), vehicle: saline 91 % of control

COC(=O)C1CC23CCCC12CC3 (centres undefined)
inactive: dose: 50.0 mg/kg/injection, schedule: Q04DX002 (ip), vehicle: saline with Tween-80 92 % of control | dose: 100.0 mg/kg/injection, schedule: Q04DX002 (ip), vehicle: saline with Tween-80 103 % of control | dose: 200.0 mg/kg/injection, schedule: Q04DX002 (ip), vehicle: saline with Tween-80 92 % of control

ClC(Cl)(c1ccccc1)C1(c2ccccc2)CC1
inactive: dose: 75.0 mg/kg/injection, schedule: Q01DX001 (ip), vehicle: acetone 107 % of control | dose: 150.0 mg/kg/injection, schedule: Q01DX001 (ip), vehicle: acetone 109 % of control

COc1ccc(/C=C2\N=C(c3ccccc3)OC2=O)cc1OC
inactive: [3] 105 % of control | [4] 109 % of control | [5] 96 % of control | [6] 105 % of control | [7] 100 % of control | [8] 100 % of control | dose: 400.0 mg/kg/injection, schedule: Q04DX003 (ip), vehicle: saline 96 % of control

O=C(CCCC(=O)N/N=C/c1ccccc1[N+](=O)[O-])N/N=C\c1ccccc1[N+](=O)[O-]
inactive: [3] 112 % of control | [4] 106 % of control | [6] 101 % of control | [8] 101 % of control

COc1cc(-c2nc(CCl)no2)cc(OC)c1OC
inactive: dose: 100.0 mg/kg/injection, schedule: Q04DX002 (ip), vehicle: Klucel (hydroxypropylcellulose) (HPC) 95 % of control | dose: 200.0 mg/kg/injection, schedule: Q04DX002 (ip), vehicle: Klucel (hydroxypropylcellulose) (HPC) 104 % of control | dose: 400.0 mg/kg/injection, schedule: Q04DX002 (ip), vehicle: Klucel (hydroxypropylcellulose) (HPC) 104 % of control

COc1cc([C@@H]2c3cc4c(cc3[C@H](SC(=N)N)[C@H]3COC(=O)[C@H]23)OCO4)cc(OC)c1OC
inactive: dose: 5.0 mg/kg/injection, schedule: Q01DX Z (ip), vehicle: carboxymethylcellulose (CMC) 98 % of control | dose: 6.0 mg/kg/injection, schedule: Q01DX Z (ip), vehicle: carboxymethylcellulose (CMC) 109 % of control | dose: 10.0 mg/kg/injection, schedule: Q01DX Z (ip), vehicle: carboxymethylcellulose (CMC) 103 % of control | dose: 12.0 mg/kg/injection, schedule: Q01DX Z (ip), vehicle: carboxymethylcellulose (CMC) 112 % of control | dose: 18.0 mg/kg/injection, schedule: Q01DX Z (ip), vehicle: carboxymethylcellulose (CMC) 108 % of control | dose: 18.0 mg/kg/injection, schedule: Q01DX Z (ip), vehicle: methylcellulose (MC) 103 % of control | dose: 24.0 mg/kg/injection, schedule: Q01DX Z (ip), vehicle: carboxymethylcellulose (CMC) 112 % of control | [9] 118 % of control | dose: 27.0 mg/kg/injection, schedule: Q01DX Z (ip), vehicle: carboxymethylcellulose (CMC) 100 % of control | dose: 37.5 mg/kg/injection, schedule: Q04DX003 (ip), vehicle: saline 104 % of control | dose: 48.0 mg/kg/injection, schedule: Q01DX Z (ip), vehicle: carboxymethylcellulose (CMC) 109 % of control | [10] 88 % of control | dose: 60.0 mg/kg/injection, schedule: Q01DX Z (ip), vehicle: methylcellulose (MC) 109 % of control | dose: 75.0 mg/kg/injection, schedule: Q04DX003 (ip), vehicle: saline 105 % of control | dose: 150.0 mg/kg/injection, schedule: Q04DX003 (ip), vehicle: saline 89 % of control

Cc1cc(OCc2nc(N)nc(N)c2-c2ccc(Cl)c(Cl)c2)ccc1NC(=O)c1ccc(S(=O)(=O)F)cc1
inactive: dose: 75.0 mg/kg/injection, schedule: Q01DX001 (ip), vehicle: saline with Tween-80 100 % of control

O=C(Nc1cccc(C2=NCCN2)c1)c1cccc(C(=O)Nc2cccc(C3=NCCN3)c2)c1
inactive: [1] 103 % of control | dose: 31.0 mg/kg/injection, schedule: Q01DX Z (ip), vehicle: carboxymethylcellulose (CMC) 92 % of control | dose: 62.0 mg/kg/injection, schedule: Q01DX Z (ip), vehicle: carboxymethylcellulose (CMC) 92 % of control

N/N=C\C(=N/N)C(O)C(O)C(O)CO (centres undefined)
inactive: dose: 25.0 mg/kg/injection, schedule: Q01DX001 (ip), vehicle: saline with Tween-80 93 % of control | dose: 50.0 mg/kg/injection, schedule: Q01DX001 (ip), vehicle: saline with Tween-80 90 % of control | [2] 87 % of control

CC(C)N1CCC1C (centres undefined)
inactive: dose: 100.0 mg/kg/injection, schedule: Q04DX003 (ip), vehicle: acetone 96 % of control

CC1(C)C2CCC1(CS(=O)(=O)Cl)C(=O)C2 (centres undefined)
inactive: dose: 50.0 mg/kg/injection, schedule: Q01DX001 (ip), vehicle: carboxymethylcellulose (CMC) 100 % of control | [11] 97 % of control | [12] 97 % of control

O=C(Nc1ccc(Cl)cc1)c1cc([N+](=O)[O-])ccc1O
inactive: dose: 30.5 mg/kg/injection, schedule: Q02DX010 (ip), vehicle: carboxymethylcellulose (CMC) 95 % of control | dose: 61.0 mg/kg/injection, schedule: Q02DX010 (ip), vehicle: carboxymethylcellulose (CMC) 101 % of control | dose: 122.0 mg/kg/injection, schedule: Q02DX010 (ip), vehicle: carboxymethylcellulose (CMC) 99 % of control | dose: 244.0 mg/kg/injection, schedule: Q02DX010 (ip), vehicle: carboxymethylcellulose (CMC) 94 % of control

CC(NC(=O)c1ccccc1)C(=O)NC(CSC(c1ccccc1)c1ccccc1)C(=O)O (centres undefined)
inactive: [9] 102 % of control | [10] 100 % of control | dose: 100.0 mg/kg/injection, schedule: Q01DX009 (ip), vehicle: saline 93 % of control and 90 % of control | [5] 94 % of control | [7] 100 % of control

O=C(O)C(Cc1ccccc1)NC(=O)C(F)(F)F (centres undefined)
inactive: dose: 100.0 mg/kg/injection, schedule: Q04DX003 (ip), vehicle: other 90 % of control | dose: 200.0 mg/kg/injection, schedule: Q04DX003 (ip), vehicle: other 89 % of control

Cc1ccc(S(=O)(=O)OC2C(C)(C)C(=O)C2(C)C)cc1
inactive: [11] 97 % of control | [12] 92 % of control | dose: 400.0 mg/kg/injection, schedule: Q01DX001 (ip), vehicle: carboxymethylcellulose (CMC) 92 % of control
